Experiments:
Format in all cases: cell-based
[1] = tested on: P-388 (suspension culture of a lymphoid neoplasm from DBA/2 mouse); assay: Cytotoxic activity screening, P-388 cells; settings: Mus musculus, P388, 72 h, three days of incubation, approximate IC50
Protocol: (§1) Cell Cultures. Cells were maintained in logarithmic phase of growth in Eagle's Minimum Essential Medium, with Earle's Balanced Salts, with 2.0 mM L-glutamine, with non-essential amino acids, without sodium bicarbonate (EMEM/neaa); supplemented with 10% Fetal Calf Serum (FCS), 10^−2 M sodium bicarbonate and 0.1 g/l penicillin-G+streptomycin sulfate.
(§2) A simple screening procedure has been carried out to determine and compare the antitumour activity of these compounds, using an adapted form of the method described by Bergeron et al (1984). The tumour cell line employed have been P-388 (suspension culture of a lymphoid neoplasm from DBA/2 mouse), A-549 (monolayer culture of a human lung carcinoma), HT-29 (monolayer culture of a human colon carcinoma) and MEL-28 (monolayer culture of a human melanoma).
P-388 cell were seeded into 16 mm wells at 1×10^4 cells per well in 1 ml aliquots of MEM 5FCS containing the indicated concentration of drug. A separate set of cultures without drug was seeded as control growth to ensure that cells remained in exponential phase of growth. All determinations were carried out in duplicate.

[2] = tested on: DU-145; assay: Cytotoxic activity screening, DU-145 cells; settings: Homo sapiens, DU-145, DU-145 cells
[3] = tested on: HT-29 (monolayer culture of a human colon carcinoma); assay: Cytotoxic activity screening, HT-29 cells; settings: Homo sapiens, HT-29, 72 h, three days of incubation, Crystal Violet, approximate IC50
Protocol: as §1, §2
(§3) A-549, HT-29 and MEL-28 were seeded into 16 mm wells at 2×10^4 cells per well in 1 ml aliquots of MEM 10FCS containing the indicated concentration of drug. A separate set of cultures without drug was seeded as control growth to ensure that cells remained in exponential phase of growth. All determinations were carried out in duplicate. After three days of incubation at 37° C., 10% CO2 in a 98% humid atmosphere, the wells were stained with 0.1% Crystal Violet. An approximately IC50 was determined by comparing the growth in wells with drug to the growth in wells control.

[4] = tested on: MEL-28 (monolayer culture of a human melanoma); assay: Cytotoxic activity screening, MEL-28 cells; settings: SK-MEL-28, 72 h, three days of incubation, Crystal Violet, approximate IC50
Protocol: as §1, §2, §3

[5] = tested on: A-549 (monolayer culture of a human lung carcinoma); assay: Cytotoxic activity screening, A-549 cells; settings: Homo sapiens, A549, 72 h, three days of incubation, Crystal Violet, approximate IC50
Protocol: as §1, §2, §3

[6] = tested on: CV-1; assay: Cytotoxic activity screening, CV-1 cells; settings: Cercopithecidae

Row | SMILES | IC50 [1] [µM] | IC50 [2] [µM] | IC50 [3] [µM] | IC50 [4] [µM] | IC50 [5] [µM] | IC50 [6] [µM]
1 | COc1c(C)cc2c(c1O)[C@@H]1C3Cc4c(OC(C)=O)c(C)c5c(c4[C@H](CNC(=O)[C@H](C)NC(=S)Nc4ccccc4)N3[C@@H](C#N)[C@H](C2)N1C)OCO5 (some centres unmarked) | 0.001 | 0.001 | 0.001 | 0.001 | 0.001 | –
2 | CCCC(=O)NC[C@H]1c2c(c(OC(C)=O)c(C)c3c2OCO3)CC2[C@H]3c4c(cc(C)c(OC)c4O)C[C@@H]([C@H](C#N)N21)N3C (some centres unmarked) | 0.0001 | 0.0005 | 0.0001 | 0.0001 | 0.0005 | –
3 | COc1c(C)cc2c(c1O)[C@@H]1C3Cc4c(OC(C)=O)c(C)c5c(c4[C@H](CN)N3[C@@H](C#N)[C@H](C2)N1C)OCO5 (some centres unmarked) | 0.01 | 0.01 | 0.01 | 0.01 | 0.01 | –
4 | CCCC(=O)N[C@H](C)C(=O)NC[C@H]1c2c(c(OC(C)=O)c(C)c3c2OCO3)CC2[C@H]3c4c(cc(C)c(OC)c4O)C[C@@H]([C@H](C#N)N21)N3C (some centres unmarked) | 0.001 | 0.001 | 0.0005 | 0.0005 | 0.001 | –
5 | COCOc1c(OC)c(C)cc2c1[C@@H]1C3CC4=C(C(=O)C(O)=C(C)C4=O)[C@H](CNC(C)=O)N3[C@@H](C#N)[C@H](C2)N1C (some centres unmarked) | > 9 | – | > 18.1 | > 18.1 | > 18.1 | > 18.1
6 | COc1c(C)cc2c(c1O)[C@@H]1C3Cc4c(OC(C)=O)c(C)c5c(c4[C@H](CNC(=O)[C@H](C)N)N3[C@@H](C#N)[C@H](C2)N1C)OCO5 (some centres unmarked) | 0.008 | 0.016 | 0.008 | 0.008 | 0.016 | –
7 | COc1c(C)cc2c(c1O)[C@@H]1C3Cc4c(OC(C)=O)c(C)c5c(c4[C@H](CNC(=O)CC(C)C)N3[C@@H](C#N)[C@H](C2)N1C)OCO5 (some centres unmarked) | 0.0008 | 0.001 | – | 0.0008 | 0.001 | –
8 | COc1c(C)cc2c(c1O)[C@@H]1C3Cc4c(O)c(C)c5c(c4[C@H](CNC(=O)[C@H](C)NC(=O)C(F)(F)F)N3[C@@H](C#N)[C@H](C2)N1C)OCO5 (some centres unmarked) | 0.01 | 0.01 | 0.01 | 0.01 | 0.01 | –
9 | COC1=C(C)C(=O)C2=C(C1=O)[C@H](CNC(=O)C(C)N)N1C(C2)[C@H]2c3c(cc(C)c(OC)c3O)C[C@@H]([C@@H]1C#N)N2C (some centres unmarked) | 0.009 | – | 0.018 | 0.018 | 0.018 | 0.023
10 | COCOc1c(OC)c(C)cc2c1[C@@H]1C3CC4=C(C(=O)C(OC)=C(C)C4=O)[C@H](CNC(C)=O)N3[C@@H](C#N)[C@H](C2)N1C (some centres unmarked) | – | – | – | – | – | 0.22
11 | C=CCOc1c(C)c2c(c3c1CC1[C@H]4c5c(cc(C)c(OC)c5O)C[C@@H]([C@H](C#N)N1[C@H]3CNC(=O)[C@H](C)NC(=O)C(F)(F)F)N4C)OCO2 (some centres unmarked) | 0.001 | 0.001 | 0.001 | 0.001 | 0.001 | –
12 | COc1c(C)cc2c(c1O)[C@@H]1C3Cc4c(OC(C)=O)c(C)c5c(c4[C@H](CNC(=O)/C=C/c4cccc(C(F)(F)F)c4)N3[C@@H](O)[C@H](C2)N1C)OCO5 (some centres unmarked) | 0.0001 | 0.0001 | 0.0001 | 0.0001 | 0.0001 | –
13 | COc1c(C)cc2c(c1O)[C@@H]1C3Cc4c(OC(C)=O)c(C)c5c(c4[C@H](CNC(C)=O)N3[C@@H](C#N)[C@H](C2)N1C)OCO5 (some centres unmarked) | 0.001 | 0.001 | 0.001 | 0.001 | 0.001 | –
14 | C/C=C(\OC(C)=O)C1=C(C2=COCO2)[C@H](CNC(=O)/C=C/c2ccccc2)N2C(C1)[C@H]1c3c(cc(C)c(OC)c3O)C[C@@H]([C@@H]2C#N)N1C (some centres unmarked) | 0.0001 | 0.0001 | 0.0001 | 0.0001 | 0.0001 | –
15 | C=CCOc1c(C)c2c(c3c1CC1[C@H]4c5c(cc(C)c(OC)c5O)C[C@@H]([C@H](C#N)N1[C@H]3CO)N4C)OCO2 (some centres unmarked) | 0.19 | – | 0.19 | 0.19 | 0.19 | –
16 | COCOc1c(OC)c(C)cc2c1[C@@H]1C3Cc4c(OC(C)=O)c(C)c5c(c4[C@H](CNC(=O)[C@H](C)NC(=O)OC(C)(C)C)N3[C@@H](C#N)[C@H](C2)N1C)OCO5 (some centres unmarked) | 0.13 | 0.13 | 0.13 | 0.13 | 0.13 | –

Source: US7420051B2, “Synthetic process for the manufacture of an ecteinaschidin compound” (Pharma Mar, S.A., priority 2000, dated 2008)
